This is an account of results in patent US8404258B2, “External preparation for the skin” (Shiseido Company, Ltd., priority 2001, dated 2013).

The subject of the data set is healthy volunteers (bent side of the forearm). Kind of data set: 24 hour-occlusion patch test (Finn Chamber) of the original specimen. Type of data set: in vivo, human. To be noted: 46 persons, 0.03 ml original specimen. As to the method:
“Test Method Using Patch Test”
The test was conducted using a Finn Chamber (8 mm in diameter) with 24 hour-occlusion.
Test subjects were 46 male and female healthy volunteers (33 males and 13 females) whose ages range from 22 to 59 (average 42); 0.03 ml of the original specimen of alkylene polyglycol dineopentanoate was applied on the bent side of the forearm of the test subjects for 24 hours. The application site was secured with an elastic bandage; three hours after the removal of the bandage and the adhesive plaster the first evaluation (after-24-hours evaluation) was conducted according to the evaluation criteria of Table 1, and 24 hours later another evaluation (after-48-hours evaluation) was conducted with the same criteria.

Consider `CC(COC(=O)C(C)(C)C)OCC(C)OCC(C)OC(=O)C(C)(C)C` (stereo not shown) [Example 1, Tripropyleneglycol dineopentanoate], for which, where the note is “evaluation time 24 hrs”, the “Equivocal ± (mild erythema), number of subjects” value (from here on “Equivocal ± (mild erythema)”) is reported as 0; the “Negative − (no reaction), number of subjects” value (“Negative − (no reaction)” for short) was 46; the “Positive + (Weakly positive: erythema), number of subjects” value (from here on “Positive + (Weakly positive: erythema)”) is 0; the “Positive ++ (Moderately positive: erythema + edema), number of subjects” value was found to be 0. Under “evaluation time 24 hrs”, the “Positive +++ (Strongly positive), number of subjects” value (“Positive +++ (Strongly positive)” below) is listed as 0; the “Positive ++++ (Strongest positive: large blister), number of subjects” value (“Positive ++++” for short) came to 0; the Positive ratio is 0%. For the same compound, where the note is “evaluation time 48 hrs”, the “Equivocal ± (mild erythema)” value is given as 0; the “Negative − (no reaction)” value turned out to be 46; the “Positive + (Weakly positive: erythema)” value was 0; the “Positive ++ (Moderately positive: erythema + edema), number of subjects” value stood at 0. In addition, under “evaluation time 48 hrs”, the “Positive +++ (Strongly positive)” value came out at 0; the “Positive ++++” value is listed as 0; the Positive ratio came to 0%.
As for `CC(COC(=O)C(C)(C)C)OCC(C)OC(=O)C(C)(C)C` (stereo not shown) [Example 2, Dipropyleneglycol dineopentanoate], under “evaluation time 24 hrs”, the “Equivocal ± (mild erythema)” value is 0; the “Negative − (no reaction)” value is reported as 46; the “Positive + (Weakly positive: erythema)” value turned out to be 0; the “Positive ++ (Moderately positive: erythema + edema), number of subjects” value was found to be 0. Under “evaluation time 24 hrs”, the “Positive +++ (Strongly positive)” value is 0; the “Positive ++++” value was 0; the Positive ratio was 0%. Also, where the note is “evaluation time 48 hrs”, the “Equivocal ± (mild erythema)” value worked out at 0; the “Negative − (no reaction)” value was 46; the “Positive + (Weakly positive: erythema)” value is 0; the “Positive ++ (Moderately positive: erythema + edema), number of subjects” value is listed as 0. Under “evaluation time 48 hrs”, the “Positive +++ (Strongly positive)” value came to 0; the “Positive ++++” value came out at 0; the Positive ratio was 0%.
On to `CC(COC(=O)C(C)(C)C)OCC(C)OCC(C)OCC(C)OC(=O)C(C)(C)C` (stereo not shown) [Example 3, Tetrapropyleneglycol dineopentanoate], for which, for the setting “evaluation time 24 hrs”, the “Equivocal ± (mild erythema)” value was 0; the “Negative − (no reaction)” value is 46; the “Positive + (Weakly positive: erythema)” value is given as 0; the “Positive ++ (Moderately positive: erythema + edema), number of subjects” value amounted to 0. For the same compound, where the note is “evaluation time 24 hrs”, the “Positive +++ (Strongly positive)” value is 0; the “Positive ++++” value is given as 0; the Positive ratio was found to be 0%. In addition, where the note is “evaluation time 48 hrs”, the “Equivocal ± (mild erythema)” value came out at 0; the “Negative − (no reaction)” value came to 46; the “Positive + (Weakly positive: erythema)” value is 0; the “Positive ++ (Moderately positive: erythema + edema), number of subjects” value was determined as 0. Under “evaluation time 48 hrs”, the “Positive +++ (Strongly positive)” value was 0; the “Positive ++++” value is 0; the Positive ratio is listed as 0%.
With `CCCCCCCCC(=O)OCCCCCCC(C)C` [compound 3, Isononyl nonanoate, reference compound], for the setting “evaluation time 24 hrs”, the “Equivocal ± (mild erythema)” value is on record as 5; the “Negative − (no reaction)” value came to 31; the “Positive + (Weakly positive: erythema)” value amounted to 5; the “Positive ++ (Moderately positive: erythema + edema), number of subjects” value is 4. For the same compound, under “evaluation time 24 hrs”, the “Positive +++ (Strongly positive)” value came out at 1; the “Positive ++++” value came to 0; the Positive ratio is recorded as 22%. Moreover, where the note is “evaluation time 48 hrs”, the “Equivocal ± (mild erythema)” value worked out at 5; the “Negative − (no reaction)” value is reported as 32; the “Positive + (Weakly positive: erythema)” value is on record as 4; the “Positive ++ (Moderately positive: erythema + edema), number of subjects” value came to 5. For the setting “evaluation time 48 hrs”, the “Positive +++ (Strongly positive)” value is listed as 0; the “Positive ++++” value worked out at 0; the Positive ratio turned out to be 20%.
For the compound “Isocetyl oleate [compound 1, reference compound]”, where the note is “evaluation time 24 hrs”, the “Equivocal ± (mild erythema)” value is listed as 3; the “Negative − (no reaction)” value amounted to 39; the “Positive + (Weakly positive: erythema)” value is given as 2; the “Positive ++ (Moderately positive: erythema + edema), number of subjects” value is given as 2. Under “evaluation time 24 hrs”, the “Positive +++ (Strongly positive)” value is given as 0; the “Positive ++++” value is recorded as 0; the Positive ratio amounted to 8.7%. For the setting “evaluation time 48 hrs”, the “Equivocal ± (mild erythema)” value was 2; the “Negative − (no reaction)” value is listed as 40; the “Positive + (Weakly positive: erythema)” value is recorded as 4; the “Positive ++ (Moderately positive: erythema + edema), number of subjects” value turned out to be 0. Under “evaluation time 48 hrs”, the “Positive +++ (Strongly positive)” value stood at 0; the “Positive ++++” value was 0; the Positive ratio is reported as 8.7%.
